# Laboratory results published in ChEMBL document CHEMBL3217615, “Novel 3,5-bis(arylidiene)-4-piperidone based monocarbonyl analogs of curcumin: anticancer activity evaluation and mode of action study” (2014).
# Assays:
# Type in all cases: functional
# SR = test: Growth inhibition of human SR cells after 48 hrs by sulforhodamine B assay
# [1] = Growth inhibition of human HOP92 cells assessed as cell growth at 10^-6 M after 48 hrs by sulforhodamine B assay; conditions: HOP-92, 48 h, read-out: Activity
# ACHN = test: Growth inhibition of human ACHN cells assessed as cell growth at 10^-7 M after 48 hrs by sulforhodamine B assay; conditions: read-out: Activity
# [2] = Growth inhibition of human HCC2998 cells assessed as cell growth at 10^-4 M after 48 hrs by sulforhodamine B assay; conditions: HCC 2998, 48 h, read-out: Activity
# MDA-MB-468 [3] = test: Growth inhibition of human MDA-MB-468 cells assessed as cell growth at 10^-7 M after 48 hrs by sulforhodamine B assay; conditions: MDA-MB-468, 48 h, read-out: Activity
# [4] = Growth inhibition of human LOXIMVI cells assessed as cell growth at 10^-4 M after 48 hrs by sulforhodamine B assay; conditions: LOX IMVI, read-out: Activity
# COLO 205 = test: Induction of apoptosis in human COLO205 cells assessed as caspase 8 activation at 10 uM by FLICA
# [5] = Growth inhibition of human SF295 cells assessed as cell growth at 10^-4 M after 48 hrs by sulforhodamine B assay; conditions: SF-295, 48 h, read-out: Activity
# [6] = Growth inhibition of human OVCAR4 cells assessed as cell growth at 10^-7 M after 48 hrs by sulforhodamine B assay; conditions: OVCAR-4, 48 h, read-out: Activity
# MDA-MB-468 [7] = test: Growth inhibition of human MDA-MB-468 cells assessed as cell growth at 10^-6 M after 48 hrs by sulforhodamine B assay; conditions: MDA-MB-468, 48 h, read-out: Activity
# [8] = Growth inhibition of human MOLT4 cells after 48 hrs by sulforhodamine B assay; conditions: MOLT-4, 48 h
# CCRF-CEM = test: Growth inhibition of human CCRF-CEM cells assessed as cell growth at 10^-4 M after 48 hrs by sulforhodamine B assay; conditions: read-out: Activity
# [9] = Growth inhibition of human UO31 cells assessed as cell growth at 10^-8 M after 48 hrs by sulforhodamine B assay; conditions: UO-31, 48 h
# HCT-116 [10] = test: Growth inhibition of human HCT116 cells assessed as cell growth at 10^-6 M after 48 hrs by sulforhodamine B assay; conditions: HCT-116, 48 h, read-out: Activity
# RPMI-8226 = test: Growth inhibition of human RPMI8226 cells assessed as cell growth at 10^-6 M after 48 hrs by sulforhodamine B assay; conditions: RPMI-8226, 48 h, read-out: Activity
# [11] = Growth inhibition of human MOLT4 cells assessed as cell growth at 10^-7 M after 48 hrs by sulforhodamine B assay; conditions: MOLT-4, 48 h, read-out: Activity
# HCT-116 [12] = test: Growth inhibition of human HCT116 cells assessed as cell growth at 10^-4 M after 48 hrs by sulforhodamine B assay; conditions: HCT-116, 48 h, read-out: Activity
# [13] = Growth inhibition of human OVCAR4 cells assessed as cell growth at 10^-4 M after 48 hrs by sulforhodamine B assay; conditions: OVCAR-4, 48 h, read-out: Activity
# [14] = Growth inhibition of human SF295 cells assessed as cell growth at 10^-7 M after 48 hrs by sulforhodamine B assay; conditions: SF-295, 48 h, read-out: Activity
# SK-MEL-2 = test: Growth inhibition of human SK-MEL-2 cells assessed as cell growth at 10^-5 M after 48 hrs by sulforhodamine B assay; conditions: SK-MEL-2, 48 h, read-out: Activity
# NCI-H322M = test: Growth inhibition of human NCI-H322M cells assessed as cell growth at 10^-7 M after 48 hrs by sulforhodamine B assay; conditions: read-out: Activity
# IGROV-1 [15] = test: Growth inhibition of human IGROV1 cells assessed as cell growth at 10^-8 M after 48 hrs by sulforhodamine B assay; conditions: IGROV-1, 48 h
# SK-MEL-28 = test: Growth inhibition of human SK-MEL-28 cells assessed as cell growth at 10^-7 M after 48 hrs by sulforhodamine B assay; conditions: SK-MEL-28, 48 h, read-out: Activity
# IGROV-1 [16] = test: Growth inhibition of human IGROV1 cells after 48 hrs by sulforhodamine B assay; conditions: IGROV-1, 48 h
# SNB-75 [17] = test: Growth inhibition of human SNB75 cells assessed as cell growth at 10^-7 M after 48 hrs by sulforhodamine B assay; conditions: SNB-75, 48 h, read-out: Activity
# MDA-MB-468 [18] = test: Growth inhibition of human MDA-MB-468 cells assessed as cell growth at 10^-8 M after 48 hrs by sulforhodamine B assay; conditions: MDA-MB-468, 48 h
# SN12C = test: Growth inhibition of human SN12C cells assessed as cell growth at 10^-6 M after 48 hrs by sulforhodamine B assay; conditions: read-out: Activity
# U-251 = test: Growth inhibition of human U251 cells assessed as cell growth at 10^-8 M after 48 hrs by sulforhodamine B assay; conditions: U-251, 48 h
# SNB-75 [19] = test: Growth inhibition of human SNB75 cells assessed as cell growth at 10^-8 M after 48 hrs by sulforhodamine B assay; conditions: SNB-75, 48 h
# MDA-MB-468 [20] = test: Growth inhibition of human MDA-MB-468 cells assessed as cell growth at 10^-4 M after 48 hrs by sulforhodamine B assay; conditions: MDA-MB-468, 48 h, read-out: Activity
# CAKI-1 [21] = test: Growth inhibition of human CAKI-1 cells assessed as cell growth at 10^-8 M after 48 hrs by sulforhodamine B assay; conditions: CAKI-1, 48 h
# A498 = test: Growth inhibition of human A498 cells after 48 hrs by sulforhodamine B assay; conditions: A498, 48 h
# [22] = Growth inhibition of human MOLT4 cells assessed as cell growth at 10^-6 M after 48 hrs by sulforhodamine B assay; conditions: MOLT-4, 48 h, read-out: Activity
# CAKI-1 [23] = test: Growth inhibition of human CAKI-1 cells assessed as cell growth at 10^-6 M after 48 hrs by sulforhodamine B assay; conditions: CAKI-1, 48 h, read-out: Activity
# Malme-3M = test: Growth inhibition of human MALME-3M cells assessed as cell growth at 10^-7 M after 48 hrs by sulforhodamine B assay; conditions: read-out: Activity
# [24] = read-out: LC50 (the source's name)
# [25] = read-out: pLC50 (the source's name) (converted)
smiles,measurement,setting,value
Cc1ccc(S(=O)(=O)N2C/C(=C\c3cc(F)cc(F)c3)C(=O)/C(=C/c3cc(F)cc(F)c3)C2)cc1,GI50,SR,0.0348 µM
same,TGI,SR,0.252 µM
same,CC50,SR; [24],> 100 µM
same,growth at 1 µM,[1],55%
same,growth at 0.1 µM,ACHN,99%
same,growth at 100 µM,[2],-95%
same,growth at 0.1 µM,MDA-MB-468 [3],83%
same,growth at 100 µM,[4],-98%
same,Activity,COLO 205,61%
same,growth at 100 µM,[5],-75%
same,growth at 0.1 µM,[6],93%
same,growth at 1 µM,MDA-MB-468 [7],22%
same,GI50,[8],0.299 µM
same,TGI,[8],2.11 µM
same,CC50,[8]; [24],> 100 µM
same,growth at 100 µM,CCRF-CEM,-29%
same,GI50,[9],1.1 µM
same,LC50,[9],5.13 µM
same,growth at 0.01 µM,[9]; read-out: Activity,91%
same,TGI,[9]; read-out: pTGI (converted),2.34 µM
same,growth at 1 µM,HCT-116 [10],-32%
same,growth at 1 µM,RPMI-8226,-16%
same,growth at 0.1 µM,[11],88%
same,growth at 100 µM,HCT-116 [12],-92%
same,growth at 100 µM,[13],-81%
same,growth at 0.1 µM,[14],92%
same,growth at 10 µM,SK-MEL-2,-44%
same,growth at 0.1 µM,NCI-H322M,103%
same,GI50,IGROV-1 [15],0.437 µM
same,LC50,IGROV-1 [15],5.13 µM
same,growth at 0.01 µM,IGROV-1 [15]; read-out: Activity,106%
same,TGI,IGROV-1 [15]; read-out: pTGI (converted),1.55 µM
same,growth at 0.1 µM,SK-MEL-28,93%
same,GI50,IGROV-1 [16],0.436 µM
same,TGI,IGROV-1 [16],1.55 µM
same,CC50,IGROV-1 [16]; [24],5.17 µM
same,growth at 0.1 µM,SNB-75 [17],90%
same,GI50,MDA-MB-468 [18],0.347 µM
same,growth at 0.01 µM,MDA-MB-468 [18]; read-out: Activity,90%
same,CC50,MDA-MB-468 [18]; [25],5.75 µM
same,TGI,MDA-MB-468 [18]; read-out: pTGI (converted),1.7 µM
same,growth at 1 µM,SN12C,11%
same,GI50,U-251,0.186 µM
same,LC50,U-251,2.04 µM
same,growth at 0.01 µM,U-251; read-out: Activity,94%
same,TGI,U-251; read-out: pTGI (converted),0.525 µM
same,GI50,SNB-75 [19],2 µM
same,LC50,SNB-75 [19],26.3 µM
same,growth at 0.01 µM,SNB-75 [19]; read-out: Activity,88%
same,TGI,SNB-75 [19]; read-out: pTGI (converted),5.89 µM
same,growth at 100 µM,MDA-MB-468 [20],-79%
same,GI50,CAKI-1 [21],0.363 µM
same,growth at 0.01 µM,CAKI-1 [21]; read-out: Activity,94%
same,CC50,CAKI-1 [21]; [25],61.7 µM
same,TGI,CAKI-1 [21]; read-out: pTGI (converted),2.45 µM
same,GI50,A498,1.88 µM
same,TGI,A498,4.05 µM
same,CC50,A498; [24],8.76 µM
same,growth at 1 µM,[22],8%
same,growth at 1 µM,CAKI-1 [23],16%
same,growth at 0.1 µM,Malme-3M,101%
